# Measured values: PMC5706701, “Development of a homogenous high-throughput assay for inositol hexakisphosphate kinase 1 activity” (PLoS ONE, 2017)
# Structures can show the parent of a compound that is named as a salt. Where two headings read alike, the source gives them in different places.
# Molecular target: T1, Human IP6K1 (Homo sapiens, UniProt Q92551)
# T1 construct: GST (N, cleaved yes); made in house; host or cells: C43 E. coli, pGEX-6P-2
# Assay: IP6K1 high-throughput screen of the Sigma LOPAC (ADP-Glo Max, single point);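 further: final compound concentration 10µM in 5% DMSO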
# Format: biochemical
# [1] = LOPAC single-point screen, ADP-Glo Max raw signal per well
# [2] = LOPAC single-point screen, Z-score against plate average and StDev
# [3] = Sigma LOPAC single-point screen, ADP-Glo Max raw signal per well
# [4] = Sigma LOPAC single-point screen, Z-score from plate average and StDev
# [5] = LOPAC single-point screen, ADP-Glo Max luminescence raw signal per well
# [6] = LOPAC single-point screen, Z-score relative to plate average and StDev
# [7] = LOPAC single-point screen, Z-score from raw signal with plate average and StDev
# [8] = LOPAC single-point screen, Z-score from plate average and StDev
# T1 sequence (Q92551 whole entry): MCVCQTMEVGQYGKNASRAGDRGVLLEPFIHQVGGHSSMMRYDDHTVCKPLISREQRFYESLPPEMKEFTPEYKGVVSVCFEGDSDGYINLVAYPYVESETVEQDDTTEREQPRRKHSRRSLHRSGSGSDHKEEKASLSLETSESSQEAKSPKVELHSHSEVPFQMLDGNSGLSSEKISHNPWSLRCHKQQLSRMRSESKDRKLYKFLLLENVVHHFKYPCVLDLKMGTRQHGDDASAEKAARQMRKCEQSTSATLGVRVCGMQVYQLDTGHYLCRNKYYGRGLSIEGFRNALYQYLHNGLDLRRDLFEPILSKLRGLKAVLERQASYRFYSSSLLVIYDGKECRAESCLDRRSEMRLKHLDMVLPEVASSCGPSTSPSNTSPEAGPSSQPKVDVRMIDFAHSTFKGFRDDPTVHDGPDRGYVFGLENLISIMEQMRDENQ
molecule,measurement,setting,value
CN(C)S(=O)(=O)c1ccc2c(c1)/C(=C/c1cc3c([nH]1)CCCC3)C(=O)N2 [SU 6656],Raw Signal,[1],57564
same,Z-score,[2],0.2992
CC(C)(C)c1onc(OCP(=O)(O)O)c1CC(N)C(=O)O (centres unmarked) [ATPO],Raw Signal,[3],60120
same,Z-score,[4],0.3887
Clc1cccc(Cl)c1N=C1NCCN1 [Clonidine hydrochloride],Raw Signal,[5],54432
same,Z-score,[6],-0.6131
C[C@H]1c2cccc(O)c2C(=O)C2=C(O)[C@]3(O)C(=O)C(C(N)=O)=C(O)[C@@H](N(C)C)[C@@H]3[C@@H](O)[C@@H]21 [Doxycycline hydrochloride],Raw Signal,[5],51944
same,Z-score,[6],-0.6546
"O=C1NC(=O)C(c2ccccc2)(c2ccccc2)N1 [5,5-Diphenylhydantoin]",Raw Signal,[1],54091
same,Z-score,[7],-0.2185
CN/C(=N\c1ccc(C2=NNC(=O)CC2C)cc1)NC#N (centres unmarked) [SKF 94836],Raw Signal,[1],55520
same,Z-score,[7],-0.09788
CCCNC(=O)NS(=O)(=O)c1ccc(Cl)cc1 [Chlorpropamide],Raw Signal,[1],58549
same,Z-score,[2],0.112
N=C(N)c1ccc(N)cc1 [4-Aminobenzamidine dihydrochloride],Raw Signal,[5],52991
same,Z-score,[6],-0.8669
NC(=O)CN1CC(O)CC1=O (centres unmarked) [Oxiracetam],Raw Signal,[1],55053
same,Z-score,[2],0.1108
COc1ccccc1N1CCN(CCCNc2cc(=O)n(C)c(=O)n2C)CC1 [Urapidil hydrochloride],Raw Signal,[1],54926
same,Z-score,[7],-0.2133
CC[N+](CC)(CC)CCOc1ccc(/C=C/c2ccccc2)cc1 [MG 624],Raw Signal,[3],57360
same,Z-score,[4],0.4984
Cn1cnc2c(NC3CCCC3)ncnc21 [N6-Cyclopentyl-9-methyladenine],Raw Signal,[1],52967
same,Z-score,[7],-0.2397
CN(CCOc1ccc(C[C@H](Nc2ccccc2C(=O)c2ccccc2)C(=O)O)cc1)c1ccccn1 [GW1929],Raw Signal,[1],55887
same,Z-score,[2],0.1462
C[N+]1(C)CCN(c2ccccc2)CC1.[I-],Raw Signal,[1],55993
same,Z-score,[2],0.1677
C/C=C1\C(=O)C[C@H]2[C@@H]3CCC4=CC(=O)CC[C@]4(C)[C@H]3CC[C@]12C [(Z)-Gugglesterone],Raw Signal,[5],49571
same,Z-score,[6],-1.1365
CN(C)CCCCSC(=N)N.Cl.Cl [SKF 91488 dihydrochloride],Raw Signal,[1],55411
same,Z-score,[7],-0.1191
COc1cc2nc(N3CCN(C(=O)c4ccco4)CC3)nc(N)c2cc1OC [Prazosin hydrochloride],Raw Signal,[1],56945
same,Z-score,[2],0.179
Cn1ccnc1 [1-Methylimidazole],Raw Signal,[3],56921
same,Z-score,[4],0.4247
"O=C(O)[C@@H]1C[C@H](C(=O)O)N1 [cis-Azetidine-2,4-dicarboxylic acid]",Raw Signal,[5],69033
same,Z-score,[8],1.959
NS(=O)(=O)Cc1noc2ccccc12 [Zonisamide sodium],Raw Signal,[1],56166
same,Z-score,[2],0.02763
c1ccc2c(CC3=NCCN3)cccc2c1 [Naphazoline hydrochloride],Raw Signal,[1],52798
same,Z-score,[7],-0.2681
Cl.NC1CCN(c2cccc(Cl)n2)CC1 [SR 57227A],Raw Signal,[5],53376
same,Z-score,[6],-0.5144
Nc1ncnc2c1ncn2C1CCCC1 [9-cyclopentyladenine],Raw Signal,[3],60166
same,Z-score,[4],0.3968
CCCCc1ccc(C(=O)O)nc1 [Fusaric acid],Raw Signal,[5],50850
same,Z-score,[6],-0.8767
O=C(OCCN1CCCCC1)c1c[nH]c2ccccc12 [SB 203186],Raw Signal,[5],49486
same,Z-score,[6],-1.154
Cn1cnc2c(NCc3ccccc3)nc(NCCO)nc21 [Olomoucine],Raw Signal,[3],60982
same,Z-score,[4],1.107
C[C@]12C=CC(=O)C=C1CC[C@@H]1C2=CC[C@]2(C)[C@@H](C(=O)CN3CCN(c4cc(N5CCCC5)nc(N5CCCC5)n4)CC3)CC[C@@H]12.O=C(O)/C=C\C(=O)O [U-74389G maleate],Raw Signal,[5],52844
same,Z-score,[6],-0.6178
O=C(/C=C/c1ccc(O)cc1)c1ccc(O)cc1O [Isoliquiritigenin],Raw Signal,[1],53778
same,Z-score,[7],-0.1034
COc1ccc(CCCOC(Cn2ccnc2)c2ccc(OC)cc2)cc1 (centres unmarked) [SKF 96365],Raw Signal,[1],56420
same,Z-score,[2],0.07697
NC(N)=NOCC[C@H](N)C(=O)O.O=S(=O)(O)O [L-Canavanine sulfate],Raw Signal,[3],61689
same,Z-score,[4],0.665
CC(C)(C)c1ccc(S(=O)(=O)/C=C/C#N)cc1 [Bay 11-7085],Raw Signal,[1],58167
same,Z-score,[2],0.04472
CCOC(=O)[C@]12CC1/C(=N\O)c1ccccc1O2 (mixture of isomers) [CPCCOEt],Raw Signal,[1],59801
same,Z-score,[2],0.3325
CC[C@H](CO)Nc1nc(NCc2ccccc2)c2ncn(C(C)C)c2n1 [Roscovitine],Raw Signal,[1],54754
same,Z-score,[7],-0.2467
O=C1N(c2ccccc2)c2ccccc2C1(Cc1ccncc1)Cc1ccncc1 [Linopirdine],Raw Signal,[1],55241
same,Z-score,[2],0.1424
CCCCCCN(CCCCCC)C(=O)Cc1c(-c2ccc(F)cc2)[nH]c2ccccc12,Raw Signal,[1],56591
same,Z-score,[2],0.2892
C=CCN1CC[C@]23c4c5ccc(O)c4O[C@H]2/C(=N/NC(=O)c2ccccc2)CC[C@@]3(O)[C@H]1C5 [Naloxone benzoylhydrazone],Raw Signal,[3],57821
same,Z-score,[4],0.5759
L-Methionine sulfoximine,Raw Signal,,58334
same,Z-score,,0.6621
OCc1ccc(-c2nn(Cc3ccccc3)c3ccccc23)o1 [YC-1],Raw Signal,[1],55059
same,Z-score,[7],-0.1874
CCCCCC(O)CCCC(=O)O.[Na] (centres unmarked) [5-hydroxydecanoic acid sodium],Raw Signal,[1],53435
same,Z-score,[7],-0.3518
"Br.NC1CCc2cc(O)c(O)cc2C1 (centres unmarked) [6,7-ADTN hydrobromide]",Raw Signal,[1],55279
same,Z-score,[2],0.02274
CN1CCc2cc3c(cc2[C@H]1[C@@H]1OC(=O)c2c1ccc1c2OCO1)OCO3 [(+)-Bicuculline],Raw Signal,[5],66353
same,Z-score,[8],1.4865
CC(C)OC(=O)C(C)(C)Oc1ccc(C(=O)c2ccc(Cl)cc2)cc1 [Fenofibrate],Raw Signal,[5],61843
same,Z-score,[8],1.356
COc1ccc(CCN)cc1O.Cl,Raw Signal,[1],55159
same,Z-score,[2],-0.001632
CCCCCCC(C)(C)c1ccc([C@@H]2C[C@H](O)CC[C@H]2CCCO)c(O)c1 [CP55940],Raw Signal,[1],55459
same,Z-score,[7],-0.4322
N[C@@H](Cn1oc(=O)[nH]c1=O)C(=O)O [(+)-Quisqualic acid],Raw Signal,[3],59992
same,Z-score,[4],0.7709
Cl.OCc1c[nH]cn1 [4-Imidazolemethanol hydrochloride],Raw Signal,[1],56297
same,Z-score,[2],0.2295
Cl.Fc1ccc(C(OCCCc2c[nH]cn2)c2ccc(F)cc2)cc1,Raw Signal,[1],51668
same,Z-score,[7],-0.458
O=[N+]([O-])c1ccc(CSc2ncnc3c2ncn3[C@@H]2O[C@H](CO)[C@@H](O)[C@H]2O)cc1 [S-(4-Nitrobenzyl)-6-thioinosine],Raw Signal,[5],50827
same,Z-score,[6],-0.5993
[H]/N=C(/NC)NCCC[C@H](N)C(=O)O [NG-Monomethyl-L-arginine acetate],Raw Signal,[5],51513
same,Z-score,[6],-0.484
CNC(=O)Oc1ccc2c(c1)[C@]1(C)CCN(C)[C@@H]1N2C [(-)-Physostigmine],Raw Signal,[5],62569
same,Z-score,[8],1.503
O=C(O)c1cccnc1C(=O)O [Quinolinic acid],Raw Signal,[5],51489
same,Z-score,[6],-0.881
COCC(=O)O[C@]1(CCN(C)CCCc2nc3ccccc3[nH]2)CCc2cc(F)ccc2[C@@H]1C(C)C [Mibefradil dihydrochloride],Raw Signal,[5],48952
same,Z-score,[6],-0.9143
"O=c1[nH]c2cc(Cl)ccc2c(O)c1-c1cccc(Oc2ccccc2)c1 [L-701,324]",Raw Signal,[5],49431
same,Z-score,[6],-0.8338
"Cc1ccc(OCC(O)C(C)NC(C)C)c2c1CCC2.Cl (centres unmarked) [ICI 118,551 hydrochloride]",Raw Signal,[3],57174
same,Z-score,[4],0.4672
Cc1nc2n(c(=O)c1CCN1CCC(c3noc4cc(F)ccc34)CC1)CCCC2 [Risperidone],Raw Signal,[5],53532
same,Z-score,[6],-0.4841
CN(C)CCOC(=O)COc1ccc(Cl)cc1 [Centrophenoxine hydrochloride],Raw Signal,[5],69002
same,Z-score,[8],1.953
COc1ccc2cc([C@H](C)C(=O)[O-])ccc2c1.[Na+] [(-)-Naproxen sodium],Raw Signal,[3],56716
same,Z-score,[4],0.3902
Cl.c1ccc(CN(CC2=NCCN2)c2ccccc2)cc1 [Antozoline hydrochloride],Raw Signal,[5],54212
same,Z-score,[6],-0.6519
NC(=O)c1ccccc1 [Benzamide],Raw Signal,[5],54873
same,Z-score,[6],-0.5354
CCCCCN(CCCCC)C(=O)C(CCC(=O)O)NC(=O)c1ccc(Cl)c(Cl)c1 (centres unmarked) [Lorglumide sodium],Z-score,[2],0.04041
C[C@]12CC[C@H](OS(=O)(=O)[O-])CC1=CC[C@@H]1[C@@H]2CC[C@]2(C)C(=O)CC[C@@H]12.[Na+] [Dehydroisoandrosterone 3-sulfate sodium],Raw Signal,[1],55598
same,Z-score,[2],0.08752
CSc1ccc2c(c1)N(CCC1CCCCN1C)c1ccccc1S2 (centres unmarked) [Thioridazine hydrochloride],Raw Signal,[1],57676
same,Z-score,[2],0.321
JL-18,Raw Signal,[5],64215
same,Z-score,[8],1.65
COc1nc(C)nc(Cl)c1NC1=NCCN1.Cl [Moxonidine hydrochloride],Raw Signal,[1],52362
same,Z-score,[7],-0.3413
O=C(C1CCCCC1)N1CC(=O)N2CCc3ccccc3C2C1 (centres unmarked) [Praziquantel],Raw Signal,[1],53749
same,Z-score,[7],-0.1083
CCN(c1nc(N)c(C(=O)NC(=N)N)nc1Cl)C(C)C [5-(N-Ethyl-N-isopropyl)amiloride],Raw Signal,[1],57414
same,Z-score,[2],-0.08791
